Columns and labels:
Format in all cases: cell-based
[1] = target: T1, human somatostatin receptor subtype 2 (Homo sapiens, UniProt P30874); assay: Functional assay for SSTR2 agonists (HTRF cAMP); conditions: CHO-K1 cells stably expressing human SST2; NKH477-stimulated cAMP; 20 min at 37 C; read-out: hSST2 cAMP Avg EC50
T1 construct: expressed in transfected cells
How it was run: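 Agonist activity read as fall in intracellular cAMP: HTRF 665/620 nm ratio regressed to a cAMP standard curve, EC50 fitted. Stable human SSTR2 CHO-K1 cells exposed 20 min at 37 °C to compound, final concentrations typically 0-10,000 nM.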

SST2 = target: T2, SST2 (Homo sapiens, UniProt P30874); assay: PathHunter CHO-K1 SST2 Internalization Assay; conditions: PathHunter CHO-K1 SST2 cells; 90 min at 37 C; luminescence; read-out: Internalization EC50
T2 construct: host or cells: PathHunter CHO-K1 SST2 cells
How it was run: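 Four-parameter nonlinear fits of background-corrected luminescence (duplicate means) gave IC50s. NDCs were serially diluted 1:3 over 11 points from a 10 uM final top concentration and incubated 90 min at 37 C with human SST2 CHO-K1 cells plated 48 h earlier at 2500/well. Beta-Glo read-out developed 60 min at RT.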

[2] = test system: NCI-H524 human small cell lung cancer cells; assay: H524 assay: inhibition of cell proliferation (CellTiter Glo); conditions: 2 h treatment, washout, additional 70 h incubation
How it was run: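 Proliferation was measured by CellTiter Glo 70 h after a washout that followed a 2 h pulse of NDC. Doses were an 11-point, two-fold dilution series from 1 uM. IC50 was fitted with a four-parameter model to luminescence-based % inhibition relative to control cells.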

T2 sequence (P30874 whole entry): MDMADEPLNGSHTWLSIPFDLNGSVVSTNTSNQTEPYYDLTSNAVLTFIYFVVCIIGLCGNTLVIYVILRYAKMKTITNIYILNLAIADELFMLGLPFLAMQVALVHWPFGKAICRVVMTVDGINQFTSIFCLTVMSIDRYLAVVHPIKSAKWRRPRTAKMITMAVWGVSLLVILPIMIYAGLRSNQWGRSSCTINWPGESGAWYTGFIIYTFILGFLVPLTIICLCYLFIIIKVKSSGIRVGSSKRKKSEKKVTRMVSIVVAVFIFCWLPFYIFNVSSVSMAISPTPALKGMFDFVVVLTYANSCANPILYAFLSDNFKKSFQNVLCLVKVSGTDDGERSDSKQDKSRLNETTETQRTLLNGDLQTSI
T1 sequence (P30874 whole entry): as above

Structure (SMILES): CC[C@H](C)[C@@H]([C@@H](CC(=O)N1CCC[C@H]1[C@H](OC)[C@@H](C)C(=O)N[C@H](C)[C@@H](O)c1ccccc1)OC)N(C)C(=O)[C@@H](NC(=O)[C@H](C(C)C)N(C)C(=O)OCc1ccc(NC(=O)[C@H](C)NC(=O)[C@@H](NC(=O)CCOCCC(=O)NCCNc2ncc(-c3cc(C)cc(F)c3)c(N3CCC(N)CC3)c2-c2nc3cnccc3[nH]2)C(C)C)c(O[C@@H]2O[C@H](C(=O)O)[C@@H](O)[C@H](O)[C@H]2O)c1)C(C)C [Compound 127]
- EC50 [1]: 1.6 nM
- EC50 (SST2): 290 nM
- EC50 [2]: 170 nM

Structure (SMILES): CC[C@H](C)[C@@H]([C@@H](CC(=O)N1CCC[C@H]1[C@H](OC)[C@@H](C)C(=O)N[C@H](C)[C@@H](O)c1ccccc1)OC)N(C)C(=O)[C@@H](NC(=O)[C@H](C(C)C)N(C)C(=O)OCc1ccc(NC(=O)[C@H](C)NC(=O)[C@@H](NC(=O)CCOCCC(=O)NCCNc2ncc(-c3cncc(C)c3)c(N3CCC(N)CC3)c2-c2nc3ccc(Cl)cc3[nH]2)C(C)C)c(O[C@@H]2O[C@H](C(=O)O)[C@@H](O)[C@H](O)[C@H]2O)c1)C(C)C [Compound 129]
- EC50 [1]: 190 nM
- EC50 (SST2): 960 nM
- EC50 [2]: 3000 nM

Structure (SMILES): CC[C@H](C)[C@@H]([C@@H](CC(=O)N1CCC[C@H]1[C@H](OC)[C@@H](C)C(=O)N[C@H](C)[C@@H](O)c1ccccc1)OC)N(C)C(=O)[C@@H](NC(=O)[C@H](C(C)C)N(C)C(=O)OCc1ccc(NC(=O)[C@H](CCCNC(N)=O)NC(=O)[C@@H](NC(=O)c2cn(CCOCCC(=O)NCCNc3ncc(-c4cc(C)cc(F)c4)c(N4CCC(N)CC4)c3-c3nc4ccc(Cl)cc4[nH]3)nn2)C(C)C)c(O[C@@H]2C[C@H](C(=O)O)[C@@H](O)[C@H](O)[C@H]2O)c1)C(C)C [Compound 131]
- EC50 [1]: 0.34 nM
- EC50 (SST2): 4.5 nM
- EC50 [2]: 1600 nM

Structure (SMILES): CC[C@H](C)[C@@H]([C@@H](CC(=O)N1CCC[C@H]1[C@H](OC)[C@@H](C)C(=O)N[C@H](C)[C@@H](O)c1ccccc1)OC)N(C)C(=O)[C@@H](NC(=O)[C@H](C(C)C)N(C)C(=O)OCc1ccc(NC(=O)[C@H](CCCNC(N)=O)NC(=O)[C@@H](NS(=O)(=O)C[C@H](C)CC(=O)CCOCCC(=O)NCCNc2ncc(-c3cc(C)cc(F)c3)c(N3CCC(N)CC3)c2-c2nc3ccc(Cl)cc3[nH]2)C(C)C)c(O[C@@H]2C[C@H](C(=O)O)[C@@H](O)[C@H](O)[C@H]2O)c1)C(C)C [Compound 132]
- EC50 [1]: 0.26 nM
- EC50 (SST2): 3.2 nM
- EC50 [2]: 410 nM

Structure (SMILES): CC[C@H](C)[C@@H]([C@@H](CC(=O)N1CCC[C@H]1[C@H](OC)[C@@H](C)C(=O)N[C@H](C)[C@@H](O)c1ccccc1)OC)N(C)C(=O)[C@@H](NC(=O)[C@H](C(C)C)N(C)C(=O)OCc1ccc(NC(=O)[C@H](CCCNC(N)=O)NC(=O)[C@@H](NC(=O)CCOCCC(=O)N(C)CC(=O)NCCNc2ncc(-c3cc(C)cc(F)c3)c(N3CCC(N)CC3)c2-c2nc3ccc(Cl)cc3[nH]2)C(C)C)c(O[C@@H]2O[C@H](C(=O)O)[C@@H](O)[C@H](O)[C@H]2O)c1)C(C)C [Compound 133]
- EC50 [1]: 0.097 nM
- EC50 (SST2): 5.3 nM
- EC50 [2]: 1900 nM

Structure (SMILES): CC[C@H](C)[C@@H]([C@@H](CC(=O)N1CCC[C@H]1[C@H](OC)[C@@H](C)C(=O)N[C@H](C)[C@@H](O)c1ccccc1)OC)N(C)C(=O)[C@@H](NC(=O)[C@H](C(C)C)N(C)C(=O)OCc1ccc(NC(=O)[C@H](C)NC(=O)[C@@H](NC(=O)CCOCCC(=O)N(C)CC(=O)NCCNc2ncc(-c3cc(C)cc(F)c3)c(N3CCC(N)CC3)c2-c2nc3ccc(Cl)cc3[nH]2)C(C)C)c(O[C@@H]2O[C@H](C(=O)O)[C@@H](O)[C@H](O)[C@H]2O)c1)C(C)C [Compound 134]
- EC50 [1]: 0.11 nM
- EC50 (SST2): 2.1 nM
- EC50 [2]: 1200 nM

Structure (SMILES): CC[C@H](C)[C@@H]([C@@H](CC(=O)N1CCC[C@H]1[C@H](OC)[C@@H](C)C(=O)N[C@H](C)[C@@H](O)c1ccccc1)OC)N(C)C(=O)[C@@H](NC(=O)[C@H](C(C)C)N(C)C(=O)OCc1ccc(NC(=O)[C@H](C)NC(=O)[C@@H](NC(=O)C[C@@H](N)C(=O)NCCOCCOCCC(=O)NCCNc2ncc(-c3cc(C)cc(F)c3)c(N3CCC(N)CC3)c2-c2nc3ccc(Cl)cc3[nH]2)C(C)C)c(O[C@@H]2O[C@H](C(=O)O)[C@@H](O)[C@H](O)[C@H]2O)c1)C(C)C [Compound 136]
- EC50 [1]: 0.29 nM
- EC50 (SST2): 3.5 nM
- EC50 [2]: 540 nM

Structure (SMILES): CC[C@H](C)[C@@H]([C@@H](CC(=O)N1CCC[C@H]1[C@H](OC)[C@@H](C)C(=O)N[C@H](C)[C@@H](O)c1ccccc1)OC)N(C)C(=O)[C@@H](NC(=O)[C@H](C(C)C)N(C)C(=O)OCc1ccc(NC(=O)[C@H](CCCNC(N)=O)NC(=O)[C@@H](NC(=O)C[C@@H](N)C(=O)NCCOCCOCCC(=O)NCCNc2ncc(-c3cc(C)cc(F)c3)c(N3CCC(N)CC3)c2-c2nc3ccc(Cl)cc3[nH]2)C(C)C)c(O[C@@H]2O[C@H](C(=O)O)[C@@H](O)[C@H](O)[C@H]2O)c1)C(C)C [Compound 137]
- EC50 [1]: 0.27 nM
- EC50 (SST2): 2.8 nM
- EC50 [2]: 850 nM

Structure (SMILES): CC[C@H](C)[C@@H]([C@@H](CC(=O)N1CCC[C@H]1[C@H](OC)[C@@H](C)C(=O)N[C@H](C)[C@@H](O)c1ccccc1)OC)N(C)C(=O)[C@@H](NC(=O)[C@H](C(C)C)N(C)C(=O)OCc1ccc(NC(=O)[C@H](C)NC(=O)[C@@H](NC(=O)CCOCCC(=O)NCCNc2ncc(-c3cc(C)cc(F)c3)c(N3CCC(N)CC3)c2-c2nc3ccc(F)cc3[nH]2)C(C)C)c(O[C@@H]2O[C@H](C(=O)O)[C@@H](O)[C@H](O)[C@H]2O)c1)C(C)C [Compound 138]
- EC50 [1]: 0.072 nM
- EC50 (SST2): 4.4 nM
- EC50 [2]: 20 nM

Structure (SMILES): CC[C@H](C)[C@@H]([C@@H](CC(=O)N1CCC[C@H]1[C@H](OC)[C@@H](C)C(=O)N[C@H](C)[C@@H](O)c1ccccc1)OC)N(C)C(=O)[C@@H](NC(=O)[C@H](C(C)C)N(C)C(=O)OCc1ccc(NC(=O)[C@H](C)NC(=O)[C@@H](NC(=O)CCOCCC(=O)NCCNc2ncc(-c3cc(F)cc(OC)c3)c(N3CCC(N)CC3)c2-c2nc3ccc(Cl)cc3[nH]2)C(C)C)c(O[C@@H]2O[C@H](C(=O)O)[C@@H](O)[C@H](O)[C@H]2O)c1)C(C)C [Compound 139]
- EC50 [1]: 0.1 nM
- EC50 (SST2): 4.9 nM
- EC50 [2]: 30 nM

Structure (SMILES): CC[C@H](C)[C@@H]([C@@H](CC(=O)N1CCC[C@H]1[C@H](OC)[C@@H](C)C(=O)N[C@H](C)[C@@H](O)c1ccccc1)OC)N(C)C(=O)[C@@H](NC(=O)[C@H](C(C)C)N(C)C(=O)OCc1ccc(NC(=O)[C@H](C)NC(=O)[C@@H](NC(=O)CCOCCC(=O)NCCNc2ncc(-c3cc(C)cc(F)c3)c(N3CCC(N)CC3)c2-c2nc3cc(F)cc(OC)c3[nH]2)C(C)C)c(O[C@@H]2O[C@H](C(=O)O)[C@@H](O)[C@H](O)[C@H]2O)c1)C(C)C [Compound 140]
- EC50 [1]: 0.15 nM
- EC50 (SST2): 2.9 nM
- EC50 [2]: 6.6 nM

Structure (SMILES): CC[C@H](C)[C@@H]([C@@H](CC(=O)N1CCC[C@H]1[C@H](OC)[C@@H](C)C(=O)N[C@H](C)[C@@H](O)c1ccccc1)OC)N(C)C(=O)[C@@H](NC(=O)[C@H](C(C)C)N(C)C(=O)OCc1ccc(NC(=O)[C@H](C)NC(=O)[C@@H](NC(=O)CCOCCn2cc(CCC(=O)NCCNc3ncc(-c4cc(C)cc(F)c4)c(N4CCC(N)CC4)c3-c3nc4ccc(Cl)cc4[nH]3)nn2)C(C)C)c(O[C@@H]2O[C@H](C(=O)O)[C@@H](O)[C@H](O)[C@H]2O)c1)C(C)C [Compound 141]
- EC50 [1]: 0.1 nM
- EC50 (SST2): 8.8 nM
- EC50 [2]: 20 nM

Structure (SMILES): CC[C@H](C)[C@@H]([C@@H](CC(=O)N1CCC[C@H]1[C@H](OC)[C@@H](C)C(=O)N[C@H](C)[C@@H](O)c1ccccc1)OC)N(C)C(=O)[C@@H](NC(=O)[C@H](C(C)C)N(C)C(=O)OCc1ccc(NC(=O)[C@H](CCCNC(N)=O)NC(=O)[C@@H](NC(=O)c2cn(CCOCCC(=O)NCCNc3ncc(-c4cc(C)cc(F)c4)c(N4CCC(N)CC4)c3-c3nc4ccc(Cl)cc4[nH]3)nn2)C(C)C)cc1)C(C)C [Compound 142]
- EC50 [1]: 0.37 nM
- EC50 (SST2): 6.3 nM
- EC50 [2]: 790 nM

Structure (SMILES): CC[C@H](C)[C@@H]([C@@H](CC(=O)N1CCC[C@H]1[C@H](OC)[C@@H](C)C(=O)N[C@H](C)[C@@H](O)c1ccccc1)OC)N(C)C(=O)[C@@H](NC(=O)[C@H](C(C)C)N(C)C(=O)OCc1ccc(NC(=O)[C@H](CCCNC(N)=O)NC(=O)[C@@H](NC(=O)c2cc(NCCOCCOCCOCCOCCC(=O)NCCNc3ncc(-c4cc(C)cc(F)c4)c(N4CCC(N)CC4)c3-c3nc4ccc(Cl)cc4[nH]3)cc(C(=O)NCC(=O)O)c2)C(C)C)cc1)C(C)C [Compound 144]
- EC50 [1]: 0.25 nM
- EC50 (SST2): 21 nM
- EC50 [2]: 81 nM

Structure (SMILES): CC[C@H](C)[C@@H]([C@@H](CC(=O)N1CCC[C@H]1[C@H](OC)[C@@H](C)C(=O)N[C@H](C)[C@@H](O)c1ccccc1)OC)N(C)C(=O)[C@@H](NC(=O)[C@H](C(C)C)N(C)C(=O)OCc1ccc(NC(=O)[C@H](CCCNC(N)=O)NC(=O)[C@@H](NC(=O)c2cc(NCCOCCC(=O)NCCNc3ncc(-c4cc(C)cc(F)c4)c(N4CCC(N)CC4)c3-c3nc4ccc(Cl)cc4[nH]3)cc(C(=O)NCCC(=O)O)c2)C(C)C)cc1)C(C)C [Compound 145]
- EC50 [1]: 0.38 nM
- EC50 (SST2): 17 nM
- EC50 [2]: 78 nM

Structure (SMILES): CC[C@H](C)[C@@H]([C@@H](CC(=O)N1CCC[C@H]1[C@H](OC)[C@@H](C)C(=O)N[C@H](C)[C@@H](O)c1ccccc1)OC)N(C)C(=O)[C@@H](NC(=O)[C@H](C(C)C)N(C)C(=O)OCc1ccc(NC(=O)[C@H](CCCNC(N)=O)NC(=O)[C@@H](NC(=O)c2cc(NCCOCCC(=O)NCCNc3ncc(-c4cc(C)cc(F)c4)c(N4CCC(N)CC4)c3-c3nc4ccc(Cl)cc4[nH]3)cc(C(=O)NCCCC(=O)O)c2)C(C)C)cc1)C(C)C [Compound 146]
- EC50 [1]: 0.29 nM
- EC50 (SST2): 9.9 nM
- EC50 [2]: 62 nM

— patent publication US20260007758A1, “SO[…]-2 RECEPTOR (SST2R) NON-PEPTIDE DRUG CONJUGATES AND USES THEREOF” (Crinetics Pharmaceuticals, Inc., priority 2024, published 2026)
